In US7671058B2, “N-(3,4-disubstituted phenyl) salicylamide derivatives” (Institute of Medicinal Molecular Design, Inc., priority 2006, dated 2010):

Assays:
STAT6 = STAT6 inhibition test: (GLS)x8/pTA-Luc luciferase reporter in U2-OS cells stimulated with human IL-4; format: cell-based; conditions: human IL-4 40 ng/mL; for Inhibition Rate of STAT6 (%): compound 2 μM, 8 hours; for IC50: from inhibition rates at 1, 0.1, 0.01 and 0.001 μM, read-out: IC50 against activation of STAT6
From the text: (1) Construction of a STAT6 Reporter Plasmid
The Oligonucleotides (SEQ ID: 1, 2) containing two copies of STAT6 binding sequences (refer to J. Biol. Chem., vol. 276, No. 9, pp. 6675-6688 (2001).) were synthesized, and integrated into the enhancer region of the reporter plasmid pTA-Luc Vector (CLONTECH Laboratories, Inc.) at the restriction enzyme BgIII site.
When the oligonucleotide is integrated in positive direction into the plasmid, the upstream BglII site is not reconstructed. Therefore, STAT6 binding sequences can be increased by repeating integration of the oligonucleotide at the restriction enzyme BglII site.
In the present test, a plasmid including eight integrated STAT6 binding sequences was constructed and provided for the reporter assay as (GLS)x8/pTA-Luc. Confirmation of the sequences was carried out using an automated fluorescence sequencer (Model 310 (Applied Biosystems)).
(2) Transfection into U2-OS Cells and Inhibition Test for STAT6 Activation
U2-OS cells were seeded to at 2×10^4 cells/well in 96-well culture plates, and transfection was carried out using FuGENE 6 Transfection Reagent (Roche Diagnostics GmbH). The procedures of the transfection are shown below.
11 μg of reporter plasmid ((GLS)x8/pTA-Luc) and 1.1 μg of pCMV β (CLONTECH Laboratories, Inc.) were mixed in 1.1 mL of OPTI-MEM I medium (GIBCO BRL) (solution (A)).
33 μL of FuGENE 6 Transfection Reagent was mixed in 1.1 mL of OPTI-MEM I medium (solution (B)).
(§1) The above solution (A) and solution (B) were mixed, let them stand for 15 minutes at room temperature, then, 8.8 mL of OPTI-MEM I medium was added and diluted.
To this transfection solution, U2-OS cell suspension (11 mL) in McCoy's 5A medium (GIBCO BRL) containing 10% Fetal Bovine Serum (FBS; GIBCO BRL) at 2×10^5 cells/mL was added and well mixed.
(§2) 0.2 mL of the above solution was dispensed into each well of 96-well culture plates, and incubated for 24 hours (37° C., 5% CO2).
After removal of 50 μL of medium from each well, 50 μL of McCoy's 5A medium (serum-free) containing compound, of the present application was added to a final concentration of 0.01˜2 μM (0.001, 0.01, 0.1, 0.5, 1 or 2 μM), and the plates were incubated for 2 hours (37° C., 5% CO2).
10 μL of the McCoy's 5A medium (serum-free) containing human IL-4 (R&D Systems, Inc) was added to each well to achieve a final concentration of 40 ng/mL, and incubated for 8 hours (37° C., 5% CO2).
(§3) Medium was completely removed and plates were preserved at −80° C. until measurements.
(§4) Cell lysates were prepared by adding 40 μL of Passive Lysis Buffer (Promega Corporation) to each well.
(§5) 10 μL of each lysate was transferred to 96-well white plates. 50 μL of PicaGene L.T.2.0 (TOYO INK MFG. CO., LTD.) was added to each well, then, luminescence was measured after leaving for 10 minutes at room temperature.
(§6) 10 μL of each lysate was transferred to 96-well black plates. 100 μL of Z Buffer (preparation method will be explained later) was added to each well, and fluorescence was measured immediately.
(§7) 10 μL of each lysate was transferred to 96-well clear plates. 200 μL of protein assay reagent prepared from the BCA Protein Assay Kit (Pierce Biotechnology, Inc.) was added to each well, and, absorbance was measured after incubation for 30 minutes at 37° C.
(§8) For measurements of luminescence, fluorescence, and absorbance, microplate reader GENios (TECAN G.M.B.H.) was used.
(4) Calculation of Inhibition Rate
Luminescence values that show the degree of activation by IL-4 stimulation were normalized by β-gal values that show transfection efficiency. Using the normalized values, the following calculations were carried out using the luminescence values increased by IL-4 stimulation. Inhibition Rate(%)=[…] E: In the presence of the compound of the present application, increased luminescence value by IL-4 stimulation C: Without the presence of the compound of the present application, increased luminescence value by IL-4 stimulation […]

NF-κB = NF-κB inhibition test: pNFκB-Luc luciferase reporter in U2-OS cells stimulated with human TNF α; format: cell-based; conditions: human TNF α 10 ng/mL; for Inhibition Rate of NF-κB (%): compound 2 μM, 8 hours; for IC50: from inhibition rates at 1, 0.1, 0.01 and 0.001 μM, read-out: IC50 against activation of NF-κB
Description: (1) Transfection to U2-OS Cells and Inhibition Test of Activation
U2-OS cells were seeded at 2×10^4 cells/well in 96-well culture plate, and transfection was carried out using FuGENE 6 Transfection Reagent (Roche Diagnostics GmbH). The procedures of the transfection are shown below.
11 μg of reporter plasmid (pNFκB-Luc; Stratagene Corporation) and 1.1 μg of pCMV β (CLONTECH Laboratories, Inc.) were mixed in 1.1 mL of OPTI-MEM I medium (GIBCO BRL) (solution (A)).
[…] of FuGENE 6 Transfection Reagent was mixed in 1.1 mL of OPTI-MEM I medium (solution (B)).
as §1
To this transfection solution, U2-OS cell suspension (11 mL) in McCoy's 5A medium (GIBCO BRL) containing 10% Fetal Bovine Serum (FBS; GIBCO BRL) at […] was added and well mixed.
as §2
After removal of 50 μL of medium from each well, 50 μL of McCoy's 5A medium (serum-free) containing compound of the present application was added to a final concentration of 0.01˜2 μM (0.001, 0.01, 0.1, 0.5, 1 or 2 μM), and the plates were incubated for 2 hours (37° C., 5% CO2).
10 μL of the McCoy's 5A medium (serum-free) containing human TNF α (PEPROTECH EC Ltd.) was added to each well to achieve a final concentration of 10 ng/mL, and incubated for 8 hours (37° C., 5% CO2).
as §3, §4, §5, §6, §7, §8
(3) Calculation of Inhibition Rate
Luminescence values that show the degree of activation by TNF α stimulation were normalized by β-gal values that show transfection efficiency. Using the normalized values, the following calculation was carried out using the luminescence values that increased by TNF α stimulation. Inhibition Rate(%)=[…] E: In the presence of the compound of the present application, increased luminescence values by TNF α stimulation C: Without the presence of the compound of the present application, increased luminescence values by TNF α, stimulation
The values of protein assay by BCA reagent were used for a simple assessment of cytotoxicity, and not used for the calculation of inhibition rates.
NF-κB Inhibition Rates are shown below. The values in parentheses in the table represent the concentration of the compound of the present application.
NF-κB inhibition rates where the concentrations of the compound of the present application were 1, 0.1, 0.01 and 0.001 μM were calculated, and the 50% inhibitory concentrations (IC50) of the compounds of the present application against activation of NF-κB were evaluated.

Compound | Inhibition Rate of STAT6 (%) (STAT6) | IC50 (STAT6) [µM] | Inhibition Rate of NF-κB (%) (NF-κB) | IC50 (NF-κB) [µM]
CN1CCC(COc2ccc(NC(=O)c3cc(Cl)ccc3O)cc2F)CC1 [compound 51] | 83 (2 μM) % | 0.009 | 86 (2 μM) % | 0.0179
O=C(Nc1ccc(N2CCCN(Cc3ccccc3)CC2)c(F)c1)c1cc(Cl)ccc1O [compound 52] | 55 (2 μM) % | – | 27 (2 μM) % | –
CCN1CCCN(c2ccc(NC(=O)c3cc(Cl)ccc3O)cc2F)CC1 [compound 53] | 57 (2 μM) % | – | 45 (2 μM) % | –
Cl.NCC1CCCN(c2ccc(NC(=O)c3cc(Cl)ccc3O)cc2F)C1 (centres unmarked) [compound 54] | 89 (2 μM) % | 0.015 | 84 (2 μM) % | 0.0435
Cl.O=C(Nc1ccc(OC2CCNC2)c(F)c1)c1cc(Cl)ccc1O (centres unmarked) [compound 55] | 35 (2 μM) % | – | 16 (2 μM) % | –
Cc1ccc(O)c(C(=O)Nc2ccc(N3CCN(C)CC3)c(F)c2)c1.Cl [compound 57] | 75 (2 μM) % | – | 62 (2 μM) % | –
CN1CCN(c2ccc(NC(=O)c3ccc(F)cc3O)cc2F)CC1.Cl [compound 58] | 70 (2 μM) % | – | 59 (2 μM) % | –
CN1CCN(c2ccc(NC(=O)c3cc(F)ccc3O)cc2F)CC1.Cl [compound 59] | 60 (2 μM) % | – | 43 (2 μM) % | –
CN1CCN(c2ccc(NC(=O)c3cccc(Cl)c3O)cc2F)CC1.Cl [compound 60] | 26 (2 μM) % | – | 16 (2 μM) % | –
CN1CCN(c2ccc(NC(=O)c3ccc(Cl)cc3O)cc2F)CC1.Cl [compound 61] | 86 (2 μM) % | – | 80 (2 μM) % | –
CN1CCN(c2ccc(NC(=O)c3cc(C(F)(F)F)ccc3O)cc2F)CC1.Cl [compound 62] | 96 (2 μM) % | – | 89 (2 μM) % | –
NC1CCC(Oc2ccc(NC(=O)c3cc(Cl)ccc3O)cc2F)CC1 (centres unmarked) [compound 65] | 42 (2 μM) % | – | 20 (2 μM) % | –
NC1CCN(c2ccc(NC(=O)c3cc(Cl)ccc3O)cc2F)CC1 [compound 66] | 85 (2 μM) % | 0.00379 | 92 (2 μM) % | 0.00974
Cl.NC1CCN(c2ccc(NC(=O)c3cc(Br)ccc3O)cc2F)CC1 [compound 67] | 94 (2 μM) % | 0.00532 | 93 (2 μM) % | 0.016
CN1CCN(c2ccc(NC(=O)c3cc(Br)ccc3O)cc2F)CC1 [compound 69] | 79 (2 μM) % | 0.0106 | 76 (2 μM) % | 0.0303
Cl.NC1CCN(c2ccc(NC(=O)c3ccc(Cl)cc3O)cc2F)CC1 [compound 71] | 92 (2 μM) % | 0.00336 | 94 (2 μM) % | 0.00841
CCC1CN(c2ccc(NC(=O)c3cc(Cl)ccc3O)cc2F)CCN1.Cl (centres unmarked) [compound 72] | 37 (2 μM) % | – | 41 (2 μM) % | –
Cl.NC1CCN(c2ccc(NC(=O)c3cc(Cl)ccc3O)cc2C(F)(F)F)CC1 [compound 74] | 80 (2 μM) % | 0.105 | 84 (2 μM) % | 0.0665
Cl.NC1CCN(c2ccc(NC(=O)c3cc(Cl)ccc3O)cc2Cl)CC1 [compound 75] | 76 (2 μM) % | 0.076 | 78 (2 μM) % | 0.0358
Cl.O=C(Nc1ccc(N2CCCNCC2)c(C(F)(F)F)c1)c1cc(Cl)ccc1O [compound 76] | 95 (2 μM) % | 0.0329 | 94 (2 μM) % | 0.02
CN1CCCN(c2ccc(NC(=O)c3ccc(Cl)cc3O)cc2F)CC1 [compound 77] | 90 (2 μM) % | 0.00729 | 89 (2 μM) % | 0.00844
CN1CCN(c2ccc(NC(=O)c3cc(Cl)ccc3O)cc2C#N)CC1 [compound 79] | 59 (2 μM) % | – | 59 (2 μM) % | –
O=C(Nc1ccc(N2CCCNCC2)c(F)c1)c1ccc(Cl)cc1O [compound 80] | 91 (2 μM) % | 0.00223 | 89 (2 μM) % | 0.00811
